Data set [1] has as its system HBV. Kind of data set: Anti-HBV activity in vitro in HepG2.2.15 cells (extracellular HBV DNA by qPCR). The format is cell-based, Hepatitis B virus. Conditions: Hepatitis B virus; HepG2.2.15 cells; in-house data; read-out: EC50. From the text: HepG2.2.15 and HepDE19 are stably-transfected cell lines containing the HBV genome. Both cell lines are derived from the hepatoblastoma cell line Hep G2 (American Type Culture Collection, ATCC® HB-8065™) by the published procedures described in references: MA Selles et al. Proc. Natl. Acad. Sci. USA 1987, 84, 1005-1009 and H Guo et al. Journal of Virology 2007, 81, 12472-12484, respectively. Both cell lines were maintained in Dulbecco's modified Eagle's medium (DMEM)-F12 medium supplemented with 10% fetal bovine serum, 100 U/mL penicillin, 100 μg/mL streptomycin, and 0.5 mg/mL of G418.
While HepG2.2.15 cells constitutively support HBV replication and production of virus particles, HepDE19 cells are inducible by tetracycline. Addition of 1 μg/mL tetracycline in culture medium suppresses HBV replication in HepDE19 cells, whereas switching to tetracycline-free medium resumes this process.
HepG2.2.15 cells were seeded into 96-well plates (3×10^4 cells in 100 μl media per well) and incubated overnight at 37° C. The test compounds were serially half-log diluted in DMSO, then diluted 100 times in culture media. 100 μL diluted compounds were added into the plates to reach 0.5% final concentration of DMSO in every well. Five days after compound treatment, culture supernatant was collected for further analysis.
For quantitative PCR detection of extracellular HBV DNA, 100 μL culture supernatant was collected and processed in MagNA Pure 96 Nucleic Acid Purification System (Roche Applied Science) for viral DNA extraction. The extracted samples were subjected to HBV DNA quantification by qPCR.
The compounds of the present invention were tested for their capacity to inhibit a HBV activity and activation as described herein.
(In general: In qPCR the cycle at which signal appears reflects the starting amount.)

A short description of data set [2]: Metabolic stability study in human microsome. The format is in vitro ADME. On the procedure:
Human Microsomes were preincubated with test compound for 10 min at 37° C. in 100 mM phosphate buffer, pH 7.4. The reactions were initiated by adding NADPH or NADPH regenerating system to give a final incubation volume of 400 μL. For NADPH system, the final incubations contained 1 μM test compound, 0.5 mg/mL liver microsomal protein, 1 mM NADPH in 100 mM phosphate buffer, pH 7.4. For the NADPH regenerating system, the final incubations contained 1 μM test compound, 0.5 mg/mL liver microsomal protein, 3 mM glucose 6-phosphate, 1 mM NADP, 3 mM MgCl2 and 0.05 mg/mL glucose 6-phosphate dehydrogenase in 100 mM phosphate buffer, pH 7.4. After incubation times of 0, 3, 6, 9, 15 and 30 minutes at 37° C., 50 μL samples was removed and transferred to 150 μL methanol solution which was maintained at 4° C. containing 2 μM tolbutamide (internal standard) to terminating the reaction. Following precipitation and centrifugation, the amount of compound remaining in the samples were determined by LC-MS/MS. Controls of no NADPH or NADPH regenerating system at zero and 30 min were also prepared and analyzed.

A short description of data set [3]: Lyophilisation solubility assay (Lysa). The format is physicochemical. The conditions noted are these: phosphate buffer, pH 6.5, aqueous buffer, thermodynamic from solid. On the procedure:
The aqueous solubility is an important physico-chemical property that plays a significant role in various physical and biological processes. It is desirable to have good solubility which enables good permeability and gastric and intestinal absorption, linear dose proportionality, less PK variability, and easy formulation for PD/PK studies. […] Lyophilisation solubility assay (Lysa) is a well adopted high throughput assay to measure compound solubility in industry.
Samples are prepared in duplicate from 10 mM DMSO stock solutions. After evaporation of DMSO with a centrifugal vacuum evaporator, the residue is solved in 0.05 M phosphate buffer (pH 6.5), stirred for one hour and shaken for two hours. After one night, the solutions is filtered using a microtiter filter plate and the filtrate and its 1/10 dilution are then analyzed by direct UV measurement or by HPLC-UV. […] The results are in μg/mL.

≈ marks a conversion by molar mass, not a printed value.

What is called EC50 is the midpoint of the concentration-response curve. By solubility (thermodynamic) is commonly meant solubility found after equilibrating the solid with the medium.

In the case of `COC(=O)C1=C(CN2CC(F)(F)C[C@H]2C(=O)O)NC(c2ccc(F)cc2F)=N[C@H]1c1ccc(F)cc1Cl` [Example 33, (R)-6-((S)-2-Carboxy-4,4-difluoro-pyrrolidin-1-ylmethyl)-4-(2-chloro-4-fluoro-phenyl)-2-(2,4-difluoro-phenyl)-1,4-dihydro-pyrimidine-5-carboxylic acid methyl ester], the EC50 in data set [1] was determined as 23 nM. Besides, in data set [2], the “Human Hepatic Clearance” value is 4.15 mL/min/kg.
In the case of `CCCOC(=O)C1=C(CN2CCOC[C@H]2C(=O)O)NC(c2nccs2)=N[C@H]1c1ccc(F)cc1Cl` [Example 99, (S)-4-[6-(2-Chloro-4-fluoro-phenyl)-5-propoxycarbonyl-2-thiazol-2-yl-3,6-dihydro-pyrimidin-4-ylmethyl]-morpholine-3-carboxylic acid], the EC50 in data set [1] came to 12 nM. This compound also had a thermodynamic solubility in data set [3] of more than 677 µg/mL. For the same compound, the “Human Hepatic Clearance” value in data set [2] amounted to 2.13 mL/min/kg.
For `COC(=O)C1=C(CN2C[C@H](C(=O)O)CC(F)(F)C2)NC(c2nccs2)=N[C@H]1c1ccc(F)cc1Cl` [Example 14, (R)-6-((R)-5-Carboxy-3,3-difluoro-piperidin-1-ylmethyl)-4-(2-chloro-4-fluoro-phenyl)-2-thiazol-2-yl-1,4-dihydro-pyrimidine-5-carboxylic acid methyl ester], in that order: 41 nM, more than 644 µg/mL and 1.41 mL/min/kg.
For `CC(C)OC(=O)C1=C(CN2CCOC[C@H]2C(=O)O)NC(c2nccs2)=N[C@H]1c1ccc(F)c(F)c1` [Example 100, (S)-4-[(S)-6-(3,4-Difluoro-phenyl)-5-isopropoxycarbonyl-2-thiazol-2-yl-3,6-dihydro-pyrimidin-4-ylmethyl]-morpholine-3-carboxylic acid], in that order: 35 nM, more than 656 µg/mL and 0.1 mL/min/kg.
For the compound `CCOC(=O)C1=C(CN2CCOC[C@H]2C(=O)O)NC(c2nccs2)=N[C@H]1c1ccc(Cl)c(Br)c1` [Example 124, (3S)-4-[[(4S)-4-(3-Bromo-4-chlorophenyl)-5-ethoxycarbonyl-2-(1,3-thiazol-2-yl)-1,4-dihydropyrimidin-6-yl]methyl]morpholine-3-carboxylic acid], the EC50 in data set [1] amounted to 29 nM. The same compound displayed a thermodynamic solubility in data set [3] of more than 655 µg/mL. Further, the “Human Hepatic Clearance” value in data set [2] is 2.17 mL/min/kg.
The matching figures for `COC(=O)C1=C(CN2CCOC[C@H]2C(=O)O)NC(c2nccs2)=N[C@H]1c1ccc(Br)c(F)c1F` [Example 45, (5)-4-[(R)-6-(4-Bromo-2,3-difluoro-phenyl)-5-methoxycarbonyl-2-thiazol-2-yl-3,6-dihydro-pyrimidin-4-ylmethyl]-morpholine-3-carboxylic acid]: 28 nM, more than 695 µg/mL and 4.69 mL/min/kg.
As for `CCOC(=O)C1=C(CN2CC(F)(F)C[C@H]2C(=O)O)NC(c2nccs2)=NC1c1ccc(F)c(F)c1Cl` (stereo in doubt) [Example 55, (R)-6-((S)-2-Carboxy-4,4-difluoro-pyrrolidin-1-ylmethyl)-4-(2-chloro-3,4-difluoro-phenyl)-2-thiazol-2-yl-1,4-dihydro-pyrimidine-5-carboxylic acid ethyl ester], the EC50 in data set [1] is 1 nM. For the same compound, in data set [3], the thermodynamic solubility is more than 670 µg/mL.
`COC(=O)C1=C(CN2CC(F)(F)C[C@H]2C(=O)O)NC(c2cc(C)ccn2)=N[C@H]1c1ccc(F)cc1Cl` [Example 8, (R)-6-((S)-2-Carboxy-4,4-difluoro-pyrrolidin-1-ylmethyl)-4-(2-chloro-4-fluoro-phenyl)-2-(4-methyl-pyridin-2-yl)-1,4-dihydro-pyrimidine-5-carboxylic acid methyl ester] displayed a thermodynamic solubility in data set [3] of more than 620 µg/mL. The “Human Hepatic Clearance” value in data set [2] was found to be 6.33 mL/min/kg.
In data set [3], `COC(=O)C1=C(CN2CC(F)(F)C[C@H]2C(=O)O)NC(c2nccs2)=N[C@H]1c1ccc(Cl)cc1F` [Example 76, (R)-6-((S)-2-Carboxy-4,4-difluoro-pyrrolidin-1-ylmethyl)-4-(4-chloro-2-fluoro-phenyl)-2-thiazol-2-yl-1,4-dihydro-pyrimidine-5-carboxylic acid methyl ester] gave a thermodynamic solubility of more than 630 µg/mL. Further, the “Human Hepatic Clearance” value in data set [2] is reported as 1.72 mL/min/kg.
The matching figures for `CCOC(=O)C1=C(CN2CC(F)(F)C[C@H]2C(=O)O)NC(c2nccs2)=NC1c1ccc(F)cc1Cl` (stereo partly drawn) [Example 26, 6-((S)-2-Carboxy-4,4-difluoro-pyrrolidin-1-ylmethyl)-4-(2-chloro-4-fluoro-phenyl)-2-thiazol-2-yl-1,4-dihydro-pyrimidine-5-carboxylic acid ethyl ester]: 668 µg/mL (≈ 1260 µM) and 10.02 mL/min/kg.
Compound `COC(=O)C1=C(CN2CCOC[C@H]2C(=O)O)NC(c2nc(C(F)F)cs2)=N[C@H]1c1ccc(F)cc1Cl` [Example 88, (3S)-4-[[(4R)-4-(2-Chloro-4-fluoro-phenyl)-2-[4-(difluoromethyl)thiazol-2-yl]-5-methoxycarbonyl-1,4-dihydropyrimidin-6-yl]methyl]morpholine-3-carboxylic acid] had a solubility (thermodynamic) in data set [3] of more than 665 µg/mL. Besides, the “Human Hepatic Clearance” value in data set [2] was 6.46 mL/min/kg.
As to `COC(=O)C1=C(CN2CC(F)(F)C[C@H]2C(=O)O)NC(c2nc(SC)cs2)=N[C@H]1c1ccc(F)cc1Cl` [Example 62, (2S)-1-[[(4R)-4-(2-Chloro-4-fluorophenyl)-5-methoxycarbonyl-2-(4-methylsulfanyl-1,3-thiazol-2-yl)-1,4-dihydropyrimidin-6-yl]methyl]-4,4-difluoropyrrolidine-2-carboxylic acid], in data set [1], the EC50 came to 14 nM. Moreover, the “Human Hepatic Clearance” value in data set [2] is listed as 9.06 mL/min/kg.
`COC(=O)C1=C(CN2CC(F)(F)C[C@H]2C(=O)O)NC(c2nccs2)=N[C@H]1c1ccccc1Br` [Example 72, (R)-4-(2-Bromo-phenyl)-6-((S)-2-carboxy-4,4-difluoro-pyrrolidin-1-ylmethyl)-2-thiazol-2-yl-1,4-dihydro-pyrimidine-5-carboxylic acid methyl ester] registered a solubility (thermodynamic) in data set [3] of more than 670 µg/mL. In data set [2], the “Human Hepatic Clearance” value is 5.16 mL/min/kg.
In data set [3], `COC(=O)C1=C(CN2CC(F)(F)C[C@H]2C(=O)O)NC(c2nc(C)co2)=N[C@H]1c1ccc(F)cc1Cl` [Example 15, (R)-6-((S)-2-Carboxy-4,4-difluoro-pyrrolidin-1-ylmethyl)-4-(2-chloro-4-fluoro-phenyl)-2-(4-methyl-oxazol-2-yl)-1,4-dihydro-pyrimidine-5-carboxylic acid methyl ester] yielded a thermodynamic solubility of more than 627 µg/mL. Moreover, the “Human Hepatic Clearance” value in data set [2] turned out to be 3.53 mL/min/kg.
The compound `COC(=O)C1=C(CN2CC(F)(F)C[C@H]2C(=O)O)NC(c2ncccc2F)=N[C@H]1c1ccc(F)cc1Cl` [Example 22, (R)-6-((S)-2-Carboxy-4,4-difluoro-pyrrolidin-1-ylmethyl)-4-(2-chloro-4-fluoro-phenyl)-2-(3-fluoro-pyridin-2-yl)-1,4-dihydro-pyrimidine-5-carboxylic acid methyl ester] returned a solubility (thermodynamic) in data set [3] of 630 µg/mL (≈ 1200 µM). In addition, in data set [2], the “Human Hepatic Clearance” value came out at 4.82 mL/min/kg.
In data set [3], `CCOC(=O)C1=C(CN2CC(F)(F)C[C@H]2C(=O)O)NC(c2nccs2)=N[C@H]1c1cccc(F)c1Br` [Example 67, (R)-4-(2-Bromo-3-fluoro-phenyl)-6-((S)-2-carboxy-4,4-difluoro-pyrrolidin-1-ylmethyl)-2-thiazol-2-yl-1,4-dihydro-pyrimidine-5-carboxylic acid ethyl ester] showed a thermodynamic solubility of 590 µg/mL (≈ 1030 µM). The “Human Hepatic Clearance” value in data set [2] came to 6.42 mL/min/kg.

For the origin of these results see patent US9447086B2, “6-amino acid heteroaryldihydropyrimidines for the treatment and prophylaxis of hepatitis B virus infection” (priority 2012, dated 2016).
